Reference: PMC10649961, “Novel Mitochondria-Targeted Amphiphilic Aminophosphonium Salts and Lipids Nanoparticles: Synthesis, Antitumor Activity and Toxicity” (Nanomaterials, 2023)
Where two headings read alike, the source gives them in different places. Where a SMILES comes first, the peptide text is derived from it. [ ]: non-standard residue; d: D form. Orn = NCCC[C@H](N)C(=O)O

Assays:
[1] = tested on: M-HeLa
[2] = tested on: Candida albicans ATCC 10231; test: Antimicrobial activity, serial microdilutions, Ca; format: cell-based; set-up: key to Minimum Inhibitory Concentration (MIC) / Minimum bactericidal and fungicidal concentrations (MBC, MFC): – means non-active; settings: Ca
Experimental: (§1) The antimicrobial activity of test compounds was determined by serial microdilutions in 96-well plates using Mueller-Hinton broth for bacterial culture and Sabouraud broth for yeast culture. Cultures of Gram-positive bacteria were used in the experiment: Staphylococcus aureus ATCC 6538 P FDA 209P, Bacillus cereus ATCC 10702 NCTC 8035, Enterococcus faecalis ATCC 29212; Gram-negative bacteria: Escherichia coli ATCC 25922, Pseudomonas aeruginosa ATCC 9027; and yeast: Candida albicans ATCC 10231, purchased from the State Collection of Pathogenic Microorganisms and Cell Cultures “SCPM-Obolensk” (Obolensk, Russia). Methicillin-resistant strains of S. aureus (MRSA) were isolated from patients with chronic tonsillitis (MRSA-1) and sinusitis (MRSA-2) in the bacteriological laboratory of the Republican Clinical Hospital (Kazan, Russia). The experiments were carried out in triplicate.

[3] = tested on: M-HeLa; test: cells; settings: Homo sapiens, 48 h, read-out: Cytotoxic Effects (IC50)
[4] = tested on: HuTu 80; test: cells; settings: Homo sapiens, HuTu80, 48 h, read-out: Cytotoxic Effects (IC50)
[5] = tested on: PANC-1
[6] = tested on: Bacillus cereus ATCC 10702 NCTC 8035; test: Antimicrobial activity, serial microdilutions, Bc; format: cell-based; set-up: key to Minimum bactericidal and fungicidal concentrations (MBC, MFC): – means non-active; settings: Bc
Experimental: as §1

[7] = tested on: Escherichia coli ATCC 25922; test: Antimicrobial activity, serial microdilutions, Ec; format: cell-based; set-up: key to Minimum Inhibitory Concentration (MIC) / Minimum bactericidal and fungicidal concentrations (MBC, MFC): – means non-active
Experimental: as §1

[8] = tested on: A549; test: cells; settings: Homo sapiens, A549, 48 h, read-out: Cytotoxic Effects (IC50)
[9] = tested on: PC3
[10] = tested on: MCF-7
[11] = tested on: T98G; test: cells; settings: Homo sapiens, 48 h, read-out: Cytotoxic Effects (IC50)
[12] = tested on: A549
[13] = tested on: T98G
[14] = tested on: MRSA-1; test: Antimicrobial activity, serial microdilutions, MRSA-1; format: cell-based, S. aureus; set-up: key to Minimum Inhibitory Concentration (MIC) / Minimum bactericidal and fungicidal concentrations (MBC, MFC): – means non-active
Experimental: as §1

[15] = tested on: SK-OV-3; test: cells; settings: Homo sapiens, SK-OV-3, 48 h, read-out: Cytotoxic Effects (IC50)
[16] = In vivo acute toxicity, single intraperitoneal injection; set-up: species or system mice; settings: male, CD-1, mouse, in vivo, ip, male CD-1 mice, single intraperitoneal administration, 14 days, Probit analysis
Experimental: (§2) The study of acute toxicity was performed on males of outbred white mice of the CD-1 line at the age of 2–3 months, weighing 20–30 g. The total number of mice participating in the experiment was 300. Mice were obtained from the Research and Production Enterprise Laboratory Animal Farm based at the Branch of Shemyakin and Ovchinnikov Institute of Bioorganic Chemistry of the Russian Academy of Sciences (Pushchino, Russia). The animals were kept in accordance with in standard conditions in a vivarium with 12 h of daylight and free access to food and water. The animals were fed complete feed made according to specifications (protein 22%, fiber 4% max., fat 5% max, ash 9% max, humidity 13.5% max, caloric value 295 kcal/100 g). The studies were conducted with a single parenteral–intraperitoneal (intra-peritoneal) injection, according to the method.
(§3) The substances were introduced in a sterile saline DMSO (40% vol.) solution. Solutions of the substances were prepared immediately before administration. The total volume of the injected liquid was 0.1 mL/10 g of animal weight. As a control, a group of mice was administered under similar conditions an equivalent amount (0.1 mL/10 g, or 10 mL/kg) of a solvent—40% DMSO on sterile saline solution. The substances were administered in doses ranging from 1 to 100 mg/kg; there were six animals in each group. To assess acute toxicity, the animals were monitored 14 days after administration of the substance, assessing their general condition and recording deaths.
(§4) The study of the acute toxicity parameters of six aminophosphonium salts 4a, 4b, 4d, 5a, 5b, and 6b was performed on male outbreed white mice of the CD-1 line. Acute toxicity was determined with a single parenteral (intraperitoneal) administration in sterile saline/DMSO (40% vol.) solution at doses from 1 to 100 mg/kg. To assess acute toxicity, the animals were monitored for 14 days after the introduction of substances, assessing their general condition and recording deaths. Next, lethal doses LD50, LD0, LD16, LD84, and LD100 were calculated using the Probit analysis method. LD0, LD16, LD84, and LD100 are given in Supplementary Material (Table S1).

[17] = tested on: mice of the CD-1 line; test: as above; settings: for onset of animal death after administration: CD-1 mice, i.p., doses of LD100; for acute toxicity class: according to the classification [105], parenteral administration
Experimental: as §2, §3, §4

[18] = tested on: PANC-1; test: cells; settings: Homo sapiens, PANC-1, 48 h, read-out: Cytotoxic Effects (IC50)
[19] = tested on: Hep G2
[20] = tested on: HuTu 80
[21] = tested on: MCF-7; test: cells; settings: Homo sapiens, MCF7, 48 h, read-out: Cytotoxic Effects (IC50)
[22] = tested on: Staphylococcus aureus ATCC 6538 P FDA 209P; test: Antimicrobial activity, serial microdilutions, Sa; format: cell-based; settings: Staphylococcus aureus
Experimental: as §1

[23] = tested on: Enterococcus faecalis ATCC 29212; test: Antimicrobial activity, serial microdilutions, Ef; format: cell-based; settings: Enterococcus faecalis
Experimental: as §1

[24] = tested on: DU-145
[25] = tested on: SK-OV-3
[26] = tested on: MRSA-2; test: Antimicrobial activity, serial microdilutions, MRSA-2; format: cell-based, S. aureus; settings: Staphylococcus aureus
Experimental: as §1

[27] = tested on: DU-145; test: cells; settings: Homo sapiens, DU-145, 48 h, read-out: Cytotoxic Effects (IC50), DU-145, MTT assay, 48 h
[28] = tested on: Pseudomonas aeruginosa ATCC 9027; test: Antimicrobial activity, serial microdilutions, Pa; format: cell-based; set-up: key to Minimum Inhibitory Concentration (MIC) / Minimum bactericidal and fungicidal concentrations (MBC, MFC): – means non-active
Experimental: as §1

[29] = tested on: Hep G2; test: cells; settings: Homo sapiens, HepG2, 48 h, read-out: Cytotoxic Effects (IC50)
[30] = tested on: PC3; test: cells; settings: Homo sapiens, PC-3, 48 h, read-out: Cytotoxic Effects (IC50), PC3, MTT assay, 48 h
[31] = tested on: WI38
[32] = tested on: human volunteer donor erythrocytes; test: Hemolytic assay; format: cell-based; settings: hemolysis in 50% of human erythrocytes, 1 h, 37 °C
Experimental: The hemolytic activity of Aminophosphonium Salts was assessed by comparing the optical density of a solution containing the test compound with the optical density of blood at 100% hemolysis. Healthy human volunteer donor erythrocytes were used as the object of the study. Red blood cells with EDTA (1.8 mg/mL) were washed three times with saline (0.9% NaCl), centrifuged for 10 min at 800× g rpm, and resuspended in saline (0.9% NaCl) to a concentration of 10%. The tested concentrations (0.1–100 μM) were prepared in physiological solution (0.9% NaCl) (with the addition of 5% DMSO). Compounds at the appropriate dilution (450 μL) were added to 50 μL of a 10% red blood cell suspension. Samples were incubated for 1 h at 37 °C and centrifuged for 10 min at 2000 rpm. The release of hemoglobin was controlled by measuring the optical density of the supernatant on an InvitroLogic microplate reader at λ = 540 nm. A control sample corresponding to zero hemolysis (blank experiment) was prepared by adding 50 μL of a 10% red blood cell suspension to 450 μL of saline (0.9% NaCl). A control sample corresponding to 100% hemolysis was prepared by adding 50 μL of a 10% red blood cell suspension to 450 μL of distilled water. Blood was taken at the Clinic of the Federal Research Center “Kazan Scientific Center of the Russian Academy of Sciences” from healthy donors with their personal consent.

[33] = reference normal cell line not marked at the place (ns cells)
[34] = calculated relative to the cell line Chang liver (b)
[35] = read-out: Minimum Inhibitory Concentration (MIC)
[36] = read-out: Minimum bactericidal and fungicidal concentrations (MBC, MFC)
[37] = calculated relative to the cell line WI38 (a)

Compound: CCCCCC[P+](N(CC)CC)(N(CC)CC)N(CC)CC [4a, Tris(diethylamino)(hexyl)phosphonium iodide]
- selectivity index (SI) [1, 33]: ns (ns—no selectivity)
- Minimum Inhibitory Concentration (MIC) [2]: –
- Minimum bactericidal and fungicidal concentrations (MBC, MFC) [2]: –
- IC50 [3]: 52.4 ± 3.7 µM
- IC50 [4]: 11.4 ± 0.9 µM
- selectivity index (SI) [5, 34]: 1.1
- MIC ([6]; Bacillus cereus, read-out: Minimum Inhibitory Concentration (MIC)): 62.5 ± 5.3 µM
- Minimum bactericidal and fungicidal concentrations (MBC, MFC) [6]: –
- Minimum Inhibitory Concentration (MIC) [7]: –
- Minimum bactericidal and fungicidal concentrations (MBC, MFC) [7]: –
- IC50 [8]: 64.1 ± 4.5 µM
- selectivity index (SI) [9, 33]: ns (ns—no selectivity)
- selectivity index (SI) [10, 33]: ns (ns—no selectivity)
- IC50 [11]: 57.4 ± 4 µM
- selectivity index (SI) [12, 33]: ns (ns—no selectivity)
- selectivity index (SI) [13, 33]: ns (ns—no selectivity)
- Minimum bactericidal and fungicidal concentrations (MBC, MFC) [14]: –
- MIC ([14]; Staphylococcus aureus, read-out: Minimum Inhibitory Concentration (MIC)): 125 ± 10 µM
- IC50 [15]: 46.6 ± 3.5 µM
- LD50 at 14 days [16]: 31.7 mg/kg
- onset of animal death after administration [17]: 1 to 2 h
- acute toxicity class [17]: moderately toxic
- IC50 [18]: 16.1 ± 1.3 µM
- selectivity index (SI) [19, 33]: ns (ns—no selectivity)
- selectivity index (SI) [20, 34]: 1.6
- IC50 [21]: 26 ± 1.8 µM
- MIC [22, 35]: 62.5 ± 5.2 µM
- MBC [22, 36]: 250 ± 20 µM
- MIC ([23]; ATCC29212, read-out: Minimum Inhibitory Concentration (MIC)): 250 ± 21 µM
- MBC ([23]; ATCC29212, read-out: Minimum bactericidal and fungicidal concentrations (MBC, MFC)): 500 ± 46 µM
- selectivity index (SI) [24, 33]: ns (ns—no selectivity)
- selectivity index (SI) [25, 33]: ns (ns—no selectivity)
- MIC [26, 35]: 125 ± 11 µM
- MBC [26, 36]: 125 ± 10 µM
- IC50 [27]: 26.2 ± 1.9 µM
- Minimum Inhibitory Concentration (MIC) [28]: –
- Minimum bactericidal and fungicidal concentrations (MBC, MFC) [28]: –
- IC50 [29]: 46.6 ± 3.3 µM
- IC50 [30]: 44 ± 3.1 µM

Compound: CCCCCC[P+](c1ccccc1)(N(CC)CC)N(CC)CC [5a, Bis(diethylamino)(hexyl)(phenyl)phosphonium iodide]
- selectivity index (SI) [1, 37]: 2.7
- IC50 [3]: 23 ± 1.6 µM
- IC50 [4]: 0.3 ± 0.02 µM
- selectivity index (SI) [5, 37]: 3.5
- IC50 [8]: 17 ± 1.3 µM
- times less toxic toward the normal WI38 cell line compared with doxorubicin [31]: 157 times
- selectivity index (SI) [9, 37]: 13
- selectivity index (SI) [10, 37]: 3.7
- IC50 [11]: 30.3 ± 2.1 µM
- selectivity index (SI) [12, 37]: 3.7
- selectivity index (SI) [13, 37]: 3.7
- IC50 [15]: 20 ± 1.6 µM
- LD50 at 14 days [16]: 44.7 mg/kg
- onset of animal death after administration [17]: 1 to 2 h
- acute toxicity class [17]: moderately toxic
- IC50 [18]: 17.8 ± 1.4 µM
- selectivity index (SI) [19, 37]: 3.8
- selectivity index (SI) [20, 37]: 210
- IC50 [21]: 17.1 ± 1.3 µM
- selectivity index (SI) [24, 37]: 10
- selectivity index (SI) [25, 37]: 3.2
- IC50 [27]: 6.3 ± 0.5 µM
- IC50 [29]: 16.5 ± 1.3 µM
- IC50 [30]: 4.9 ± 0.4 µM

Compound: CC(C)C[C@@H]1NC(=O)[C@H](CCCN)NC(=O)[C@H](C(C)C)NC(=O)[C@@H]2CCCN2C(=O)[C@@H](Cc2ccccc2)NC(=O)[C@H](CC(C)C)NC(=O)[C@H](CCCN)NC(=O)[C@H](C(C)C)NC(=O)[C@@H]2CCCN2C(=O)[C@@H](Cc2ccccc2)NC1=O [Gramicidin S, reference compound] (cyclo(L[dF]PV[Orn]L[dF]PV[Orn]))
- HC50 [32]: 9.4 ± 0.8 µM
